We go through 53 molecules from patent US20210300908A1, “S1P1 AGONIST AND APPLICATION THEREOF” (SHIJIAZHUANG SAGACITY SRUG SEVELOPMENT CO., LTD., priority 2016, published 2021).

Molecules are shown by their SMILES.

The target of data set [1] is S1P1 receptor (Homo sapiens, UniProt P21453). The data set is described as follows: S1P1 receptor agonistic activity (PathHunter cell strain, chemiluminescent signal detection). As to conditions: PathHunter cells, agonist mode, 37° C. 90-180 minutes. In kind it is cell-based. As to the method:
Test Method: […] Cell Processing i) Thaw the PathHunter cell strain according to the standard procedures. ii) Seed the cell in the 20 μL 384-microwell plate and incubate at 37° C. for an appropriate period. 2. Agonist i) For agonist testing, cells were incubated with the sample to be test to initiate a reaction; ii) The stock solution to be tested has been diluted 5 folds to be a buffer solution; iii) Inject the 5-fold diluted solution (5 μL) into the cells and incubate at 37° C. for 90-180 minutes. […] 3. Signal Detection i) Add 12.5 μL or 15 μL PathHunter detection reagent (50 vol. %) in one portion. Then, incubate at room temperature for 1 hour and generate the detection signal; ii) Use PerkinElmer Evision™ instrument to read the microwell plate to proceed with chemiluminescent signal detection. 4. Data Analysis i) Use CBIS data analysis system for the compound activity analysis. ii) Calculation formula: […]

Data set [2] can be described thus: Evaluation of compound pharmacokinetics in SD rats (intravenous injection and oral administration). In kind it is in vivo. As to conditions: male, Sprague Dawley, rat, plasma, 2 mg/kg, 2 mpk; for clearance: read-out: Clearance rate; for AUC: read-out: Drug concentration integral: AUC; for half-life: read-out: Half-life period: T1/2 (converted); for bioavailability: oral, read-out: Fraction of bioavailability: F. As to the method: Aim of the experiments: To test pharmacokinetics of the compounds in SD rats. Experimental Materials: Sprague Dawley rats (male, 200-300 g, 7-9 weeks old, Shanghai Slack) Experimental Procedure: The rodent pharmacokinetic characteristics of the compounds after intravenous injection and oral administration were tested by the standard protocol. In the experiments, the transparent solution was prepared with the compounds to be test. The rats were administered single intravenous injection and oral administration. The solvent for intravenous injection and oral administration was aqueous hydroxypropyl β-cyclodextrin solution or normal saline solution with a certain concentration. Collect the blood samples within 24 hours and centrifuge at 3000 G for 15 minutes. Separate the supernatant to obtain the plasma samples. A volume of acetonitrile solution containing internal standard was added 4 times as the sample to precipitate the protein. The supernatant was obtained after centrifuge. An equal volume of water was added and then centrifuge again to collect the supernatant. The LC-MS/MS method was used to quantitatively analyze the blood drug concentration and the pharmacokinetic parameters such as peak concentration, peak time, clearance rate, half-life period, area under the curve of the drug concentration, and fraction of bioavailability, etc. were calculated.

Sequence of S1P1 receptor (P21453 whole entry): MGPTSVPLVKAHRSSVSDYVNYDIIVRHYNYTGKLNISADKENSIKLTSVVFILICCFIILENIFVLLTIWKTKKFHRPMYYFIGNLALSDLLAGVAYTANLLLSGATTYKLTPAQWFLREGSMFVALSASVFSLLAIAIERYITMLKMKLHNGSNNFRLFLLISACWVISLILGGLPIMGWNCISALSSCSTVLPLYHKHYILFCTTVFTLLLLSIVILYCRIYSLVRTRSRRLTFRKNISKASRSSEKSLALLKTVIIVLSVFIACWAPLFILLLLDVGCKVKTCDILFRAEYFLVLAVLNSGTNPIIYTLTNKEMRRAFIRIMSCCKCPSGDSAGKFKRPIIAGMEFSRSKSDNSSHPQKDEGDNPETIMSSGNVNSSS

On to `CC(C)Oc1ccc(-c2nc(-c3cccc4c3CC3CC(=O)N(CCO)C43)no2)cc1OCCN(C)C` (stereo not drawn) [Example 41], for which the concentration giving a half-maximal response (EC50) (as a rule, the concentration that produces a half-maximal response) in data set [1] was above 100 nM. As for `CC(C)Oc1ccc(-c2nnc(-c3cccc4c3CC3CC(=O)N(CCO)C43)s2)cc1C#N` (stereo not drawn) [Example 3], the EC50 in data set [1] was below 10 nM.

`CC(C)Oc1ccc(-c2nc(-c3cccc4c3CC3CC(=O)N(CCOS(=O)(=O)O)[C@H]43)no2)cc1C#N` (stereo partly drawn) [Example 47] had an EC50 in data set [1] below 10 nM. Still for that read-out and setting: the same measure for `O=C1CC2Cc3c(-c4noc(-c5ccc(OC6CC6)cc5)n4)cccc3C2N1CCO` (stereo not drawn) [Example 21]: above 100 nM; for `COCOc1ccc(-c2nc(-c3cccc4c3CC3CC(=O)N(CCO)C43)no2)cc1` (stereo not drawn) [Example 24]: above 100 nM; for `CC(C)Oc1ccc(-c2nc(-c3cccc4c3CC3CC(=O)N(CCCCC(=O)O)C43)no2)cc1C#N` (stereo not drawn) [Example 11]: below 10 nM. Consider `CC(C)Oc1ccc(-c2nc(-c3cccc4c3CC3CC(=O)N(CC(O)CO)C43)no2)cc1C#N` (stereo not drawn) [Example 14], for which the EC50 in data set [1] was below 10 nM. In data set [2], the clearance came to 7.22 mL/min/kg; the AUC amounted to 5.76 µM·h; the half-life was 3.27 h; the bioavailability (commonly the share of a dose that reaches the circulation, judged against a reference dose that is usually intravenous) was 59%. In the case of `CC(C)Oc1ccc(-c2nc(-c3cccc4c3CC3CC(=O)N(CCO)C43)no2)cc1C#N` (stereo not drawn) [Example 1 Mixture], in data set [1], the EC50 is below 10 nM. For `CC(C)Oc1ccc(-c2nc(-c3cccc4c3CC3CC(=O)N(CCO)C43)no2)cc1Cl` (stereo not drawn) [Example 26], the EC50 in data set [1] is below 10 nM. For the same molecule, in data set [2], the clearance was determined as 7.5 mL/min/kg, the AUC was determined as 4.35 µM·h, the half-life is 26.7 h and the bioavailability was 88.2%. Molecule `O=C1CC2Cc3c(-c4noc(-c5cn6cccnc6n5)n4)cccc3C2N1CCO` (stereo not drawn) [Example 35 Compound 35-3] registered a concentration giving a half-maximal response (EC50) in data set [1] above 100 nM.

In data set [1], `CC(C)Oc1ccc(-c2nc(-c3cccc4c3CC3CCN(CC(=O)O)C43)no2)cc1C#N` (stereo not drawn) [Example 52] registered an EC50 below 10 nM. The same measure, in the same setting: the same measure for `CC(C)Oc1ccc(-c2nc(-c3cccc4c3CC3CC(=O)N(CCO)[C@H]43)n[nH]2)cc1C#N` (stereo partly drawn) [Example 54]: 10 to 100 nM; for `CC(C)Oc1ccc(-c2ccc(-c3cccc4c3CC3CC(=O)N(CCO)C43)s2)cc1C#N` (stereo not drawn) [Example 5]: below 10 nM; for `CC(C)Oc1ccc(-c2nc(-c3cccc4c3CC3CC(=O)N(CCO)C43)no2)cc1` (stereo not drawn) [Example 39]: 10 to 100 nM. `CC(C)Oc1ccc(-c2nc(-c3cccc4c3C[C@@H]3OC(=O)N(CCO)[C@H]43)no2)cc1C#N` (relative stereo) [Example 50] displayed an EC50 in data set [1] below 10 nM. Also, in data set [2], the clearance turned out to be 6.59 mL/min/kg, the AUC was found to be 8.52 µM·h, the half-life was 4.82 h and the bioavailability came to 72.4%. For `O=C1CC2Cc3c(-c4noc(-c5ccc(OC(F)F)cc5)n4)cccc3C2N1CCO` (stereo not drawn) [Example 16], in data set [1], the EC50 was above 100 nM. `O=C1CC2Cc3c(-c4noc(-c5ccc(OCC6CC6)cc5)n4)cccc3C2N1CCO` (stereo not drawn) [Example 23] had an EC50 in data set [1] above 100 nM.

With `COc1cc(-c2nc(-c3cccc4c3CC3CC(=O)N(CCO)C43)no2)cc(C2CCCC2)n1` (stereo not drawn) [Example 44], the EC50 in data set [1] was 10 to 100 nM. On the same count and under the same terms, next, `O=C1CC2Cc3c(-c4noc(-c5csc(-c6ccccc6)n5)n4)cccc3C2N1CCO` (stereo not drawn) [Example 32]: above 100 nM; `CC(C)Oc1ccc(-c2nc(-c3cccc4c3CC3CC(=O)N(CCO)C43)ns2)cc1C#N` (stereo not drawn) [Example 6]: below 10 nM. On the same count and under the same terms, next, `CC(C)Oc1ccc(-c2nc(-c3cccc4c3CC3CCC(=O)N(CCO)C43)no2)cc1C#N` (stereo not drawn) [Example 45]: below 10 nM.

Take `CC(C)Oc1ccc(-c2nc(-c3cccc4c3CC3CC(=O)N(CCO)C43)no2)c(C#N)c1` (stereo not drawn) [Example 42]: in data set [1], the 50% effective concentration (EC50) is above 100 nM. In turn, `O=C1CC2Cc3c(-c4noc(-c5cc(-c6nccs6)on5)n4)cccc3C2N1CCO` (stereo not drawn) [Example 37] had an EC50 in data set [1] above 100 nM. On the same count and under the same terms, next, `CC(C)Oc1cccc(-c2nc(-c3cccc4c3CC3CC(=O)N(CCO)C43)no2)c1` (stereo not drawn) [Example 20]: above 100 nM. For `CC(C)Oc1ccc(-c2nc(-c3cccc4c3C[C@@H]3CC(=O)N([C@H](C)CO)C43)no2)cc1C#N` (stereo partly drawn) [Example 56], in data set [1], the 50% effective concentration (EC50) was below 10 nM. Moreover, in data set [2], the clearance amounted to 14.6 mL/min/kg, the AUC was found to be 3.32 µM·h, the half-life was 1.63 h and the bioavailability was 66.7%. `CN1CCc2nc(-c3nc(-c4cccc5c4CC4CC(=O)N(CCO)C54)no3)sc2C1` (stereo not drawn) [Example 33] registered a 50% effective concentration (EC50) in data set [1] above 100 nM.

`CC(C)Oc1ccc(-c2nc(-c3cccc4c3CC3CCN(CCO)C43)no2)cc1C#N` (stereo not drawn) [Example 49]: the EC50 in data set [1] lay in the range of 10 to 100 nM. Same read-out and setting: the same measure for `N#Cc1cccc(-c2nc(-c3cccc4c3CC3CC(=O)N(CCO)C43)no2)c1` (stereo not drawn) [Example 17]: above 100 nM; for `CC(C)Oc1ccc(-c2nnc(-c3cccc4c3C[C@@H]3CC(=O)N(CCO)[C@H]43)o2)cc1C#N` [Example 51]: below 10 nM. Consider `CCCc1nnsc1-c1nc(-c2cccc3c2CC2CC(=O)N(CCO)C32)no1` (stereo not drawn) [Example 30], for which the 50% effective concentration (EC50) in data set [1] is above 100 nM. The molecule `CC(C)Oc1ccc(-c2ncc(-c3cccc4c3CC3CC(=O)N(CCO)C43)o2)cc1C#N` (stereo not drawn) [Example 4] gave an EC50 in data set [1] below 10 nM. Same read-out and setting: next, `CC(C)Oc1ccc(-c2nc(-c3cccc4c3CC3CC(=O)N(CCO)C43)no2)cc1S(C)(=O)=O` (stereo not drawn) [Example 43]: 10 to 100 nM.

With `O=C1CC2Cc3c(-c4noc(-c5ccc(OC(F)(F)F)cc5)n4)cccc3C2N1CCO` (stereo not drawn) [Example 19], the EC50 in data set [1] was above 100 nM. Same read-out and setting: the same measure for `CC(C)Oc1ccc(-c2nc(-c3cccc4c3C[C@@H]3CC(=O)N([C@@H](CO)C(C)C)C43)no2)cc1C#N` (stereo partly drawn) [Example 55]: 10 to 100 nM.

In the case of `CC(C)Oc1ccc(-c2nc(-c3cccc4c3CC3CC(=O)N(CCS(C)(=O)=O)C43)no2)cc1C#N` (stereo not drawn) [Example 13], the EC50 in data set [1] is below 10 nM. Same read-out and setting: the same measure for `CC(C)Oc1ccc(-c2nc(-c3cccc4c3CC3CC(=O)N(CCO)C43)no2)cc1Br` (stereo not drawn) [Example 25]: below 10 nM. In data set [1], `CN(C)CCOc1ccc(-c2nc(-c3cccc4c3CC3CC(=O)N(CCO)C43)no2)cc1` (stereo not drawn) [Example 28] had an EC50 above 100 nM.

For the molecule `CC(C)Oc1ccc(-c2nc(-c3cccc4c3CCC3CC(=O)N(CCO)C43)no2)cc1C#N` (stereo not drawn) [Example 46], the half-maximal effective concentration (EC50) in data set [1] is below 10 nM. In data set [1], `O=C1CC2Cc3c(-c4noc(-c5nc6ccccn6c5F)n4)cccc3C2N1CCO` (stereo not drawn) [Example 31] yielded a 50% effective concentration (EC50) above 100 nM. Same read-out and setting: next, `O=C1CC2Cc3c(-c4noc(-c5cn(Cc6ccccc6)nn5)n4)cccc3C2N1CCO` (stereo not drawn) [Example 38]: above 100 nM; `CC(C)Oc1ccc(-c2nc(-c3cccc4c3C[C@@H]3CCN(C5CC(C(=O)O)C5)C43)no2)cc1C#N` (stereo partly drawn) [Example 53]: below 10 nM. Regarding `CC(C)Oc1ccc(-c2nc(-c3cccc4c3CC3CC(=O)N(CCCC(=O)O)C43)no2)cc1C#N` (stereo not drawn) [Example 10], the EC50 in data set [1] was below 10 nM. Same read-out and setting: next, `CC(C)Oc1ccc(-c2nc(-c3cccc4c3CC3CC(=O)N(CC(=O)N(C)C)C43)no2)cc1C#N` (stereo not drawn) [Example 15]: 10 to 100 nM. On the same count and under the same terms, next, `CC(C)Oc1ccccc1-c1nc(-c2cccc3c2CC2CC(=O)N(CCO)C32)no1` (stereo not drawn) [Example 22]: above 100 nM; `COCCN1C(=O)CC2Cc3c(-c4noc(-c5ccc(OC(C)C)c(C#N)c5)n4)cccc3C21` (stereo not drawn) [Example 12]: below 10 nM. Still for that read-out and setting: next, `O=C1CC2Cc3c(-c4noc(-c5cnc6ncccn56)n4)cccc3C2N1CCO` (stereo not drawn) [Example 35 Compound 35-2]: above 100 nM. Consider `Cc1nc(C)c(-c2nc(-c3cccc4c3CC3CC(=O)N(CCO)C43)no2)o1` (stereo not drawn) [Example 29], for which the 50% effective concentration (EC50) in data set [1] is above 100 nM. On to `CC(C)Oc1ccc(-c2ncc(-c3cccc4c3CC3CC(=O)N(CCO)C43)s2)cc1C#N` (stereo not drawn) [Example 2], for which, in data set [1], the EC50 is below 10 nM. Still for that read-out and setting: next, `CC(C)c1ncc(-c2nc(-c3cccc4c3CC3CC(=O)N(CCO)C43)no2)s1` (stereo not drawn) [Example 34]: above 100 nM; `O=C1CC2Cc3c(-c4noc(-c5cn6c(n5)CCCC6)n4)cccc3C2N1CCO` (stereo not drawn) [Example 36]: above 100 nM; `CC(C)Oc1ccc(-c2nc(-c3cccc4c3CC3CC(=O)N(CCC(=O)O)C43)no2)cc1C#N` (stereo not drawn) [Example 9]: below 10 nM.

On to `CC(C)Oc1ccc(-c2nsc(-c3cccc4c3CC3CC(=O)N(CCO)C43)n2)cc1C#N` (stereo not drawn) [Example 7], for which, in data set [1], the half-maximal effective concentration (EC50) is below 10 nM.

`COc1ccc(-c2nc(-c3cccc4c3CC3CC(=O)N(CCO)C43)no2)cc1` (stereo not drawn) [Example 18] showed an EC50 in data set [1] above 100 nM.
